Measured values from patent EP2508526A1, “Spiroalkene carboxamide derivatives and their use as chemokine receptor modulators” (Ares Trading SA, priority 2011, dated 2012).
Where a name gives a salt, the structure may show the parent alone.

Biological target: T1, hCCR2b (Homo sapiens, UniProt P41597)
T1 sequence (P41597 1-360 isoform P41597-2): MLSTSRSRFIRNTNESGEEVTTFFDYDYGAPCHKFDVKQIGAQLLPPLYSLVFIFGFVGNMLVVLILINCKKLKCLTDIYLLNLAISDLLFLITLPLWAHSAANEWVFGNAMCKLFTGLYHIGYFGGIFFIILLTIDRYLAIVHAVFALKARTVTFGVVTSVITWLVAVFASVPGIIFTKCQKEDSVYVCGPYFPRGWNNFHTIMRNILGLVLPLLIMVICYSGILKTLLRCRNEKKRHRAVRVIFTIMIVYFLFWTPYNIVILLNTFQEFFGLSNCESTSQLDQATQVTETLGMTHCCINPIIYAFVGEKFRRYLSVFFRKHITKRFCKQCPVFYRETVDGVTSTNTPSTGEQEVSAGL
Experiment: CCR2 binding assay ([125I]MCP-1, SPA, CHO cell membranes)
Set-up: expressed in transfected cells; host or cells: CHO cells (membrane preparation)
Settings: membranes from CHO cells expressing hCCR2b, 50 pM [125I]MCP-1; read-out: Binding hCCR2 (Ki)
How it was run: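 CHO membranes expressing hCCR2b (1–5 µg/well) with 50 pM [125I]MCP-1 and WGA SPA beads in 50 mM HEPES pH 7.4, 5 mM MgCl2, 1 mM CaCl2, 0.1% BSA, 1% DMSO; 90 min RT with agitation. Bound counts on scintillation counter; nonspecific defined by 1000-fold excess unlabeled compound.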

| Structure (SMILES) | Ki |
| --- | --- |
| CCN1CCC2(CC1)OC(=O)C(C)=C2C(=O)N1C[C@@H]2C[C@H]1CN2c1nccc(C(F)(F)F)n1 [Compound 72, 8-ethyl-3-methyl-4-({(1S,4S)-5-[4-(trifluoromethyl)pyrimidin-2-yl]-2.5-diazabicyclo[2.2.1]hept-2-yl}carbonyl)-1-oxa-8-azaspiro[4.5]dec-3-en-2-one] | < 50 nM |
| CCN1CCC2(CC1)OC(=O)C(C)=C2C(=O)Nc1ccc(-n2ccc(C(F)(F)F)n2)cc1 [Compound 75, 8-ethyl-3-methyl-2-oxo-N-{4-[3-(trifluoromethyl)-1H-pyrazol-1-yl]phenyl}-1-oxa-8-azaspiro[4.5]dec-3-ene-4-carboxamide] | 500 to 2000 nM |
| CC1=C(C(=O)N2CCc3ccc(C(F)(F)F)cc3C2)C2(CCNCC2)OC1=O [Compound 76, 3-methyl-4-{[7-(trifluoromethyl)-3,4-dihydroisoquinolin-2(1H)-yl]carbonyl}-1-oxa-8-azaspiro[4.5]dec-3-en-2-one, hydrocloride salt] | < 50 nM |
| CC1=C(C(=O)N2CCc3ncc(C(F)(F)F)cc3C2)C2(CCNCC2)OC1=O [Compound 78, 3-methyl-4-{[3-(trifluoromethyl)-7,8-dihydro-1,6-naphthyridin-6(5H)-yl]carbonyl}-1-oxa-8-azaspiro[4.5]dec-3-en-2-one, hydrocloride salt] | 100 to 500 nM |
| CCN1CCC2(CC1)OC(=O)C(C)=C2C(=O)N1CCN(c2cccc(F)c2)CC1 [Compound 80, 8-ethyl-4-{[4-(3-fluorophenyl)piperazin-1-yl]carbonyl}-3-methyl-1-oxa-8-azaspiro[4.5]dec-3-en-2-one] | 500 to 2000 nM |
| CCN1CCC2(CC1)OC(=O)C(C)=C2C(=O)NCCCc1cccc(C(F)(F)F)c1 [Compound 92, 8-ethyl-3-methyl-2-oxo-N-{3-[3-(trifluoromethyl)phenyl]propyl}-1-oxa-8-azaspiro[4.5]dec-3-ene-4-carboxamide] | 100 to 500 nM |
| CCN1CCC2(CC1)OC(=O)C(C)=C2C(=O)N1CCN(c2ccc(OC(F)(F)F)cc2)CC1 [Compound 93, 8-ethyl-3-methyl-4-({4-[4-(trifluoromethoxy)phenyl]piperazin-1-yl}carbonyl)-1-oxa-8-azaspiro[4.5]1dec-3-en-2-one] | 100 to 500 nM |
| CCN1CCC2(CC1)OC(=O)C(C)=C2C(=O)N1CCC(c2cccc(C(F)(F)F)c2)CC1 [Compound 94, 8-ethyl-3-methyl-4-({4-[3-(trifluoromethyl)phenyl]piperidin-1-yl}carbonyl)-1-oxa-8-azaspiro[4.5]dec-3-en-2-one] | 100 to 500 nM |
| CCN1CCC2(CC1)OC(=O)C(C)=C2C(=O)N1CCN(c2cc(C(F)(F)F)ccc2OC)CC1 [Compound 95, 8-ethyl-4-({4-[2-methoxy-5-(trifluoromethyl)phenyl]piperazin-1-yl}carbonyl)-3-methyl-1-oxa-8-azaspiro[4.5]dec-3-en-2-one] | 500 to 2000 nM |
| CCN1CCC2(CC1)OC(=O)C(C)=C2C(=O)N1CCN(c2cc(C(F)(F)F)ccc2C)CC1 [Compound 96, 8-ethyl-3-methyl-4-({4-[2-methyl-5-(trifluoromethyl)phenyl]piperazin-1-yl}carbonyl)-1-oxa-8-azaspiro[4.5]dec-3-en-2-one] | 500 to 2000 nM |
| CCN1CCC2(CC1)OC(=O)C(C)=C2C(=O)Nc1ccc(-c2cccc(C(F)(F)F)c2)cc1 [Compound 98, 8-ethyl-3-methyl-2-oxo-N-[3'-(trifluoromethyl)biphenyl-4-yl]-1-oxa-8-azaspiro[4.5]dec-3-ene-4-carboxamide] | 500 to 2000 nM |
| CCN1CCC2(CC1)OC(=O)C(C)=C2C(=O)NCCc1cccc(C(F)(F)F)c1 [Compound 99, 8-ethyl-3-methyl-2-oxo-N-{2-[3-(trifluoromethyl)phenyl]ethyl}-1-oxa-8-azaspiro[4.5]dec-3-ene-4-carboxamide] | 500 to 2000 nM |
| CCN1CCC2(CC1)OC(=O)C(C)=C2C(=O)NCCc1ccc(C(F)(F)F)cc1 [Compound 100, 8-ethyl-3-methyl-2-oxo-N-{2-[4-(trifluoromethyl)phenyl]ethyl}-1-oxa-8-azaspiro[4.5]dec-3-ene-4-carboxamide] | 500 to 2000 nM |

More lines, now with the values ahead:

| Ki | Structure (SMILES) |
| --- | --- |
| < 50 nM | CC1=C(C(=O)N2CCc3ccc(C(F)(F)F)cc3C2)C2(CCN(C(C)(C)C)CC2)OC1=O [Compound 77, 8-tert-butyl-3-methyl-4-{[7-(trifluoromethyl)-3,4-dihydroisoquinolin-2(1H)-yl]carbonyl}-1-oxa-8-azaspiro[4.5]dec-3-en-2-one] |
| < 50 nM | CCN1CCC2(CC1C)OC(=O)C(C)=C2C(=O)N1CCc2ccc(C(F)(F)F)cc2C1 (centres unmarked) [Compound 79, 8-ethyl-3,7-dimethyl-4-{[7-(trifluoromethyl)-3,4-dihydroisoquinolin-2(1H)-yl]carbonyl}-1-oxa-8-azaspiro[4.5]dec-3-en-2-one] |
| < 50 nM | CCN1CCC2(CC1)OC(=O)C(C)=C2C(=O)N1CCN(c2cccc(OC(F)(F)F)c2)CC1 [Compound 81, 8-ethyl-3-methyl-4-({4-[3-(trifluoromethoxy)phenyl]piperazin-1-yl}carbonyl)-1-oxa-8-azaspiro[4.5]dec-3-en-2-one] |
| < 50 nM | CCN1CCC2(CC1)OC(=O)C(C)=C2C(=O)N1CCN(c2ccc(Cl)c(C(F)(F)F)c2)CC1 [Compound 82, 4-({4-[4-chloro-3-(trifluoromethyl)phenyl]piperazin-1-yl}carbonyl)-8-ethyl-3-methyl-1-oxa-8-azaspiro[4.5]dec-3-en-2-one] |
| < 50 nM | CCN1CCC2(CC1)OC(=O)C(C)=C2C(=O)N1CCC(Nc2ccc(C(F)(F)F)cc2)C1 (centres unmarked) [Compound 83, 8-ethyl-3-methyl-4-[(3-{[4-(trifluoromethyl)phenyl]amino}pyrrolidin-1-yl)carbonyl]-1-oxa-8-azaspiro[4.5]dec-3-en-2-one] |
| < 50 nM | CCN1CCC2(CC1)OC(=O)C(C)=C2C(=O)N1CCN(c2cccc(C(F)(F)F)c2)CC1C (centres unmarked) [Compound 84, 8-ethyl-3-methyl-4-({2-methyl-4-[3-(trifluoromethyl)phenyl]piperazin-1-yl}carbonyl)-1-oxa-8-azaspiro[4.5]dec-3-en-2-one] |
| < 50 nM | CCN1CCC2(CC1)OC(=O)C(C)=C2C(=O)N1CCc2ncc(C(F)(F)F)cc2C1 [Compound 85, 8-ethyl-3-methyl-4-{[3-(trifluoromethyl)-7,8-dihydro-1,6-naphthyridin-6(5H)-yl]carbonyl}-1-oxa-8-azaspiro[4.5]dec-3-en-2-one] |
| < 50 nM | CCN1CCC2(CC1)OC(=O)C(C)=C2C(=O)N1CCN(c2cc(Cl)cc(C(F)(F)F)c2)CC1 [Compound 86, 4-({4-[3-chloro-5-(trifluoromethyl)phenyl]piperazin-1-yl}carbonyl)-8-ethyl-3-methyl-1-oxa-8-azaspiro[4.5]dec-3-en-2-one] |
| < 50 nM | CCN1CCC2(CC1)OC(=O)C(C)=C2C(=O)N1CCN(c2cc(OC)cc(C(F)(F)F)c2)CC1 [Compound 87, 8-ethyl-4-({4-[3-methoxy-5-(trifluoromethyl)phenyl]piperazin-1-yl}carbonyl)-3-methyl-1-oxa-8-azaspiro[4.5]dec-3-en-2-one] |
| < 50 nM | CCN1CCC2(CC1)OC(=O)C(C)=C2C(=O)N1CCN(c2cc(C(F)(F)F)cc(C(F)(F)F)c2)CC1 [Compound 88, 4-({4-[3,5-bis(trifluoromethyl)phenyl]piperazin-1-yl}carbonyl)-8-ethyl-3-methyl-1-oxa-8-azaspiro[4.5]dec-3-en-2-one] |
| 50 to 100 nM | CCN1CCC2(CC1)OC(=O)C(C)=C2C(=O)NCc1cccc(C(F)(F)F)c1 [Compound 89, 8-ethyl-3-methyl-2-oxo-N-[3-(trifluoromethyl)benzyl]-1-oxa-8-azaspiror[4.5]dec-3-ene-4-carboxamide] |
| 50 to 100 nM | CCN1CCC2(CC1)OC(=O)C(C)=C2C(=O)N1CCCN(c2cccc(C(F)(F)F)c2)CC1 [Compound 90, 8-ethyl-3-methyl-4-({4-[3-(trifluoromethyl)phenyl]-1,4-diazepan-1-yl}carbonyl)-1-oxa-8-azaspiro[4.5]dec-3-en-2-one] |
| 100 to 500 nM | CCN1CCC2(CC1)OC(=O)C(C)=C2C(=O)N1CCCN(c2ccc(C(F)(F)F)cc2)CC1 [Compound 91, 8-ethyl-3-methyl-4-({4-[4-(trifluoromethyl)phenyl]-1,4-diazepan-1-yl}carbonyl)-1-oxa-8-azaspiro[4.5]dec-3-en-2-one] |
| < 50 nM | CC1=C(C(=O)N2CCN(c3cccc(C(F)(F)F)c3)CC2)C2(CCN(C(C)C)CC2)OC1=O [Compound 101, 8-isopropyl-3-methyl-4-({4-[3-(trifluoromethyl)phenyl]piperazin-1-yl}carbonyl)-1-oxa-8-azaspiro[4.5]dec-3-en-2-one] |
| < 50 nM | CC1=C(C(=O)N2CCN(c3cccc(C(F)(F)F)c3)CC2)C2(CCN(CCc3ccccc3)CC2)OC1=O [Compound 102, 3-methyl-8-(2-phenylethyl)-4-({4-[3-(trifluoromethyl)phenyl]piperazin-1-yl}carbonyl)-1-oxa-8-azaspiro[4.5]dec-3-en-2-one] |
| < 50 nM | CC1=C(C(=O)N2CCN(c3cccc(C(F)(F)F)c3)CC2)C2(CCN(CC(C)C)CC2)OC1=O [Compound 103, 8-isobutyl-3-methyl-4-({4-[3-(trifluoromethyl)phenyl]piperazin-1-yl}carbonyl)-1-oxa-8-azaspiro[4.5]dec-3-en-2-one] |
